By IC50 is commonly meant the midpoint of a concentration-inhibition curve. Low readings indicate greater potency, high ones weaker potency.

This experiment addresses T1, c-KIT kinase enzyme (Homo sapiens, UniProt P10721).
T1 construct: cKIT (6.25 μM) (catalytic domain, N-terminal GST tagged, unphosphorylated)
Description: cKIT Homogeneous Time Resolved Fluorescent (HTRF) kinase assay. The experiment is classed as biochemical. The settings on record: inhibition of the c-KIT kinase enzyme. How it is done: cKIT-Homogeneous Time Resolved Fluorescent (HTRF) Kinase Assay:
The purpose of this assay is to measure the inhibition of cKIT enzyme activity (autophosphorylation and phosphorylation of substrate) by small molecule test compounds. The cKIT HTRF assay begins with cKIT-catalyzed phosphorylation of biotinylated peptide Her-2 (N-GGMEDIYFEFMGGKKK-C) (SEQ ID 001) in the presence of ATP. The cKIT enzyme reaction is comprised of 1 μL of compound in 100% DMSO, 15 μL of 2× substrate mix (50 μM ATP and 2 μM biotinylated Her-2) and 15 μL of 2× cKIT (6.25 μM) (catalytic domain, N-terminal GST tagged, unphosphorylated) in 4 mM DTT all diluted in enzyme buffer (25 mM HEPES pH 7.5, 12.5 mM NaCl, 50 mM MgCl, 0.05% BSA). The reaction incubates for 90 min at RT. 160 Microliters of detection mixture containing 0.47 μg/mL steptavidin allophycocyanin and 29.7 pM europylatedanti-phosphotyrosine Ab (PT66, Perkin Elmer) in HTRF buffer (100 mM Hepes pH 7.5, 100 mM NaCl, 0.1% BSA, 0.05% Tween 20) is then added to stop the reaction, by diluting out the enzyme as well as to enable quantitation of phosphorylated Her-2. After 3 h at RT, the detection reaction is read in a Packard Discovery™ (model BD1000) plate reader. The wells are excited with coherent […] light and the ratio of delayed ([…] post excitation) emissions at […] (native europium fluorescence) and 665 nm (europium fluorescence transferred to allophycocyanin—an index of substrate phosphorylation) is determined. The proportion of substrate phosphorylated in the kinase reaction in the presence of compound compared with that phosphorylated in the presence of DMSO vehicle alone (HI control) is calculated using the formula:
% control (POC)=(cpd−average LO)/(average HI−average LO)*100. Data (consisting of POC and inhibitor concentration in μM) is fitted to a 4-parameter equation (y=A+((B−A)/(1+((x/C)^D))), where A is the minimum y (POC) value, B is the maximum y (POC), C is the x (compound concentration) at the point of inflection and D is the slope factor) using a Levenburg-Marquardt non-linear regression algorithm.
Background: TR-FRET usually uses a lanthanide donor and a delayed reading to cut background.

The structures appear in SMILES notation.

T1 sequence (P10721 589-937 limits assumed): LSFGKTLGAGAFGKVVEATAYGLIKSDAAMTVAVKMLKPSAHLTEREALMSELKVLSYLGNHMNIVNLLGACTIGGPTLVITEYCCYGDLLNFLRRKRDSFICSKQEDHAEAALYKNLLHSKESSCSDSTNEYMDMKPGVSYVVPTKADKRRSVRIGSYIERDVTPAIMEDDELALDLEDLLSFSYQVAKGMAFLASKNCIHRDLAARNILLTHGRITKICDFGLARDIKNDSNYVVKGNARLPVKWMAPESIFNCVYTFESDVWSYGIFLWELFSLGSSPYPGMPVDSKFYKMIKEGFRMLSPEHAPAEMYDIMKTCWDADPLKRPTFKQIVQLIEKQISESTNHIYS

Take `CC(=O)N1CC(C)(C)c2ccc(-n3ccc(C)c(C#Cc4cnc(N)nc4)c3=O)cc21` [Example 8, 1-(1-acetyl-3,3-dimethyl-2,3-dihydro-1H-indol-6-yl)-3-((2-amino-5-pyrimidinyl)ethynyl)-4-methyl-2(1H)-pyridinone]: the IC50 is at most 20 nM.

`Cc1ccn(-c2ccc3c(c2)NCC3(C)C)c(=O)c1C#Cc1cnc(N)nc1` [Example 6, 3-((2-amino-5-pyrimidinyl)ethynyl)-1-(3,3-dimethyl-2,3-dihydro-1H-indol-6-yl)-4-methyl-2(1H)-pyridinone] displayed an IC50 of at most 10 nM.

`Cc1ccn(-c2cccc(C(F)(F)F)c2)c(=O)c1C#Cc1cnc(N)nc1` [Example 4, 3-((2-amino-5-pyrimidinyl)ethynyl)-4-methyl-1-(3-(trifluoromethyl)phenyl)-2(1H)-pyridinone] showed an IC50 of at most 100 nM.

For the compound `Cc1ccn(-c2ccc3c(c2)CCO3)c(=O)c1C#Cc1cnc(N)nc1` [Example 9, 3-((2-amino-5-pyrimidinyl)ethynyl)-1-(2,3-dihydro-1-benzofuran-5-yl)-4-methyl-2(1H)-pyridinone], the IC50 was at most 100 nM.

Take `Cc1ccc(-n2ccc(C)c(C#Cc3cnc(N)nc3)c2=O)cc1C` [Example 7, 3-((2-amino-5-pyrimidinyl)ethynyl)-1-(3,4-dimethylphenyl)-4-methyl-2(1H)-pyridinone]: the IC50 was at most 10 nM.

The compound `Cc1ccn(-c2cccc(OC(F)(F)F)c2)c(=O)c1C#Cc1cnc(N)nc1` [Example 10, 3-((2-amino-5-pyrimidinyl)ethynyl)-4-methyl-1-(3-((trifluoromethyl)oxy)phenyl)-2(1H)-pyridinone] yielded a half-maximal inhibitory concentration (IC50) of at most 100 nM.

Values taken from patent US7893061B2, “Alkyne-substituted pyridone compounds and methods of use” (Amgen Inc., priority 2006, dated 2011).
